Consider five compounds from paper PMC8949104, “Bioactivity-Guided Separation of Anti-Cholinesterase Alkaloids from Uncaria rhynchophlly (Miq.) Miq. Ex Havil Based on HSCCC Coupled with Molecular Docking” (Molecules, 2022).

One assay concerns the target T1, Acetyl-cholinesterase (Electrophorus electricus, UniProt O42275).
T1 construct: Acetyl-cholinesterase was from electric eel; purchased Sigma-Aldrich; host or cells: electric eel (natural source)
Briefly: biochemical. The assay is classed as biochemical. The source says:
(§1) HPLC-grade methanol and acetonitrile were purchased from Shanghai, China (Sinopharm Chemical Reagent Co., Ltd., Shanghai, China). Acetyl-cholinesterase was from electric eel, butyryl-cholinesterase was from equine serum, and acetylthiocholine iodide was purchased from Sigma-Aldrich (Sigma-Aldrich company, St. Louis, MO, USA). […] AB-8 macroporous resin was purchased from Yuanye (Yuanye Biochemical Technology Co., Ltd., Shanghai, China).
(§2) The Ellman method was used to determine the inhibitory activity of acetyl-cholinesterase and butyryl-cholinesterase of each monomer compound. Briefly, 150 µL of PBS buffer solution (pH = 7.4), 10 µL of the tested compound solution, and 20 µL of acetyl-cholinesterase or butyryl-cholinesterase solution (concentration of 0.2 U/mL) were transferred to a 96-well plate and placed in a gas bath constant temperature oscillator at 37 °C for 15 min. […] Then, 10 µL PBS was added to the blank group to exclude other irrelevant factors from affecting the experimental results and ensure the rationality of the experimental results. […] Inhibition Rate = (Anegative control group − Atest group/Anegative control group − Ablank group) × 100%(2)

Another assay concerns the target T2, Butyryl-cholinesterase (Equus caballus, UniProt P81908).
T2 construct: butyryl-cholinesterase was from equine serum; purchased Sigma-Aldrich; host or cells: equine serum
Briefly: biochemical. The format is biochemical. To be noted: for IC50: Ellman method, 37 °C, PBS pH 7.4, 412 nm, read-out: IC50 Value Butyrylcholinesterase.
Description: as §1, §2

[1] abbreviates: Ellman method, 37 °C, PBS pH 7.4, 412 nm, read-out: IC50 Value Acetylcholinesterase.

The structures appear in SMILES notation. Like-named read-outs stand apart in the source and are kept apart here.

T1 sequence (O42275 24-633): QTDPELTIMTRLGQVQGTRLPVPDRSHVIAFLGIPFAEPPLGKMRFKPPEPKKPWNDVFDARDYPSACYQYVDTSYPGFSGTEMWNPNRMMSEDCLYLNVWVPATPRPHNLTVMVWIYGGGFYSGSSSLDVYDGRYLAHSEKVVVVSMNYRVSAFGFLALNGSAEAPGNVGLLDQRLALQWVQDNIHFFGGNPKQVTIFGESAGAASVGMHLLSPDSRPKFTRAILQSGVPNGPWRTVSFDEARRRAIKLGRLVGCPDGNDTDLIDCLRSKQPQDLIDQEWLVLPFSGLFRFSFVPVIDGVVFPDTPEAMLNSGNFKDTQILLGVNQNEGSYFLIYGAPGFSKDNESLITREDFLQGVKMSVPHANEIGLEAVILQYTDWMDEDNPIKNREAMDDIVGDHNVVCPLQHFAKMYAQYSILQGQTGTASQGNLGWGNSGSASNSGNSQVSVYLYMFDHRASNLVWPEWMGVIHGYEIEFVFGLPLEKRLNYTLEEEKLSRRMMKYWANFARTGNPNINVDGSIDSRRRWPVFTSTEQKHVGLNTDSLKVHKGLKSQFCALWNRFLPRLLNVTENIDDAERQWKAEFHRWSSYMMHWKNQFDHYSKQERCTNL
T2 sequence (P81908 whole entry): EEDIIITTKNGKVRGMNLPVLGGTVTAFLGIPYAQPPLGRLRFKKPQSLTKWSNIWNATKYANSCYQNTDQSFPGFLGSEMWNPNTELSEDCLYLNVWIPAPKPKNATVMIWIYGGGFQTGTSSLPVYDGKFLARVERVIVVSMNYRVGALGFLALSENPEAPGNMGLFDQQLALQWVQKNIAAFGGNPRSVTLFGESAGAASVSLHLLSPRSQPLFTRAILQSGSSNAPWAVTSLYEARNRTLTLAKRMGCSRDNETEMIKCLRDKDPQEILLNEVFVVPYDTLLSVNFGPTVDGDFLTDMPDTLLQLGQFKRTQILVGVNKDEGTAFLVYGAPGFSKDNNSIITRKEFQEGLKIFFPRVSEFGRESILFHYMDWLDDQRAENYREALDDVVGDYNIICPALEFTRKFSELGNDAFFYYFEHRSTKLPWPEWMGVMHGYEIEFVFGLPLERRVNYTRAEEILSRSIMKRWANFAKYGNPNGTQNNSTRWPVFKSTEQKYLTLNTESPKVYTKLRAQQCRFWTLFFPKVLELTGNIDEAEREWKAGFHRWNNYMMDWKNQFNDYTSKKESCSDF

For the compound `COC(=O)C1=COC(OC2OC(CO)C(O)C(O)C2O)C2C(O)CN3CCc4c([nH]c5ccccc45)C3CC12` (stereo not drawn) [Compound 5, 3α-dihydrocadambine], the IC50 was 37 ± 1.57 µM on Acetyl-cholinesterase (setting [1]) and 33.3 ± 0.51 µM at Butyryl-cholinesterase.

Regarding `COC(=O)C1=COC(OC2OC(CO)C(O)C(O)C2O)C2C3CN4CCc5c([nH]c6ccccc56)C4(CC12)O3` (stereo not drawn) [Compound 4, cadambine], the half-maximal inhibitory concentration (IC50) against Acetyl-cholinesterase came out at 26.1 ± 2.12 µM; at Butyryl-cholinesterase it was 30.7 ± 0.69 µM.

Consider `C=C[C@H]1C(O[C@H]2O[C@H](CO)[C@@H](O)[C@H](O)[C@H]2O)OC=C2C(=O)N3CC[C@]4(C(=O)Nc5ccccc54)[C@H]3C[C@H]21` (stereo partly drawn) [Compound 1, 7-epi-javaniside], for which the values for the IC50 on Acetyl-cholinesterase (setting [1]) and at Butyryl-cholinesterase were 2.85 ± 0.5 µM and 2.13 ± 0.1 µM, respectively. Besides, the “acetyl-cholinesterase inhibitory activity (in words)” value at Acetyl-cholinesterase (qualitative statement) was “close to that of the positive drug”. In addition, the “butyryl-cholinesterase inhibitory activity (in words)” value on Butyryl-cholinesterase (qualitative statement) was “close to that of the positive drug”.

Consider `C=CC1C2C[C@@H]3c4[nH]c5ccccc5c4CCN3C(=O)C2=CO[C@H]1O[C@H]1O[C@H](CO)[C@@H](O)[C@H](O)[C@H]1O` (stereo partly drawn) [Compound 3, strictosamide], for which the IC50 against Acetyl-cholinesterase was 46.6 ± 0.58 µM; at Butyryl-cholinesterase it was 6.47 ± 0.72 µM.

Regarding `C=CC1C2C[C@H]3c4[nH]c5ccccc5c4CCN3C(=O)C2=CO[C@H]1O[C@H]1O[C@H](CO)[C@@H](O)[C@H](O)[C@H]1O` (stereo partly drawn) [Compound 2, vincosamide], the IC50 turned out to be 12.4 ± 0.86 µM at Acetyl-cholinesterase and 23.18 ± 0.14 µM at Butyryl-cholinesterase.
